Measured values taken from patent US20200390100A1, “SUBSTITUTED N-HETEROCYCLYL- AND N-HETEROARYL-TETRAHYDROPYRIMIDINONES AND THE SALTS THEREOF, AND THE USE OF SAME AS HERBICIDAL ACTIVE SUBSTANCES” (Bayer Aktiengesellschaft, priority 2017, published 2020).
Like-named read-outs stand apart in the source and are kept apart here.

Tests used:
Matricaria inodora [1] = experiment: Post-emergence herbicidal action, greenhouse, 320 g/ha; type: in vivo; conditions: application rate 320 g/ha, rated visually after about 3 weeks vs untreated controls
Description: (§1) Seeds of monocotyledonous and dicotyledonous weeds and crop plants were placed in sandy loam in plastic or wood-fiber pots, covered with soil and cultivated in a greenhouse under controlled growth conditions. 2 to 3 weeks after sowing, the test plants were treated at the one-leaf stage. The compounds of the invention, formulated in the form of wettable powders (WP) or as emulsion concentrates (EC), were then sprayed onto the green parts of the plants as aqueous suspension or emulsion with addition of 0.5% additive at a water application rate of […] (converted). After the test plants had been kept in the greenhouse under optimum growth conditions for about 3 weeks, the activity of the preparations was rated visually in comparison to untreated controls. For example, 100% activity=the plants have died, 0% activity=like control plants. Tables A1 to A14 below show the effects of selected compounds of the general formula (I) according to Tables 1.1 to 1.150 on various harmful plants and at an application rate corresponding to 320 g/ha, which were obtained by the experimental procedure mentioned above.

Abutilon theophrasti [2] = experiment: as above; type: in vivo; conditions: application rate 320 g/ha, rated visually after about 3 weeks vs untreated controls
Description: as §1

Amaranthus retroflexus [3] = experiment: as above; type: in vivo; conditions: application rate 320 g/ha, rated visually after about 3 weeks vs untreated controls
Description: as §1

Stellaria media [4] = experiment: as above; type: in vivo; conditions: application rate 320 g/ha, rated visually after about 3 weeks vs untreated controls
Description: as §1

Viola tricolor [5] = experiment: as above; type: in vivo; conditions: application rate 320 g/ha, rated visually after about 3 weeks vs untreated controls
Description: as §1

Setaria viridis [6] = experiment: as above; type: in vivo; conditions: application rate 320 g/ha, rated visually after about 3 weeks vs untreated controls
Description: as §1

Echinochloa crus-galli = experiment: Herbicidal pre-emergence action (Part 2), 1280 g/ha; type: in vivo; conditions: application rate 1280 g/ha, scored visually after about 3 weeks, Table D1
From the text: (§2) Seeds of mono- and dicotyledonous weed plants were placed in plastic pots in sandy loam soil (doubly sown with in each case one species of mono- or dicotyledonous weed plants per pot) and covered with soil. The compounds of the invention, formulated in the form of wettable powders (WP) or as emulsion concentrates (EC), were then applied onto the surface of the covering soil as aqueous suspension or emulsion with addition of 0.5% additive at a water application rate of 600 liters per hectare (converted). After the treatment, the pots were placed in a greenhouse and kept under good growth conditions for the test plants. After about 3 weeks, the effect of the preparations was scored visually in comparison with untreated controls as percentages. For example, 100% activity=the plants have died, 0% activity=like control plants. Tables D1 to D8 below show the effects of selected compounds of the general formula (I) according to Tables 1.1 to 1.150 on various harmful plants and at an application rate corresponding to 1280 g/ha, which were obtained by the experimental procedure mentioned above.

photosystem II (PS II) = molecular target: T1, photosystem II (PS II) (Spinacia oleracea, UniProt P69560); experiment: Measurement of PS II activity in thylakoid membranes (DCPIP reduction); type: biochemical, spinach; conditions: read-out: Effect
T1 construct: the chloroplasts were osmotically ruptured and the thylakoid membranes were then obtained by centrifugation; from tissue; host or cells: fresh spinach leaves; thylakoid membrane preparation from isolated chloroplasts
Description: Cooled fresh spinach leaves were comminuted and homogenized in 50 mM phosphate buffer, pH 6.8. 10 mM KCl, 0.34 M sucrose (sucrose buffer) (blender, 1 g of plant material/ml). The homogenate was subsequently filtered through 4 layers of Miracloth and the chloroplasts were isolated by centrifugation, i.e. 10 min of centrifugation at 4400×g (4° C.). The sediment was suspended in 25 ml of sucrose buffer and re-centrifuged for 10 min at 4400×g (4° C.). The sediment was then suspended in 40 ml of 50 mM phosphate buffer, pH 6.8, 10 mM KCl, without sucrose. In this step, the chloroplasts were osmotically ruptured and the thylakoid membranes were then obtained by centrifugation (10 min, 4400×g, 4° C.). The membrane sediment was finally suspended in about 20 ml of 50 mM phosphate buffer, pH 6.8, 10 mM KCl. Following protein determination and activity determination, the membrane suspension was divided into aliquots and frozen in liquid nitrogen. The aliquots were stored at −80° C. Under these conditions, the photosystem II preparation was storage stable for at least three months. The activity determination of photosystem II (PS II) was then carried out using the following test principle: The electron transfer from PS II to an artificial electron acceptor, 2,6-dichlorophenolindophenol (DCPIP), was measured with exposure to light. The concentration of the blue oxidized form of DCPIP was determined spectrophotometrically at wavelength λ=595 nm. […] The activity determination is carried out in microtiter plates (96 cavities) in a reaction volume of 200 μl. Here, 155 μl of dilute membrane suspension were initially charged in 50 mM of phosphate buffer, pH 6.8, 10 mM KCl. Depending on the activity of the PS II preparation, the dilution was adjusted such that the measurement of the decrease in absorption (λ=595 nm) was linear for at least 10 min. In each case 5 μl solutions of the test compounds of a concentration of 100 μM in DMSO were added to the enzyme suspension; controls contained 5 μl of DMSO; the final concentration of DMSO in the reaction batch was thus 2.5% (v/v); this concentration had no adverse effect on the enzymatic activity. On each microtiter plate, a known PS II inhibitor, for example metribuzin, was used as standard, which allowed the quality of the PS II test to be assessed. The reaction was started by addition of 40 μl DCPIP solution (600 μM in distilled water); the final concentration of DCPIP was 120 μM. Measurement of absorption is carried out over a period of 10 min at 22° C. and with exposure to light. Using metribuzin as comparative substance, the results for the efficacy of the compounds of the general formula (I) at 100 μM are stated in the table below using the following classification: ++++(inhibition≥90%), +++(90%>inhibition≥70%), ++(70%>inhibition≥50%), +(50%>inhibition≥30%).

Matricaria inodora [7] = experiment: Pre-emergence herbicidal action, greenhouse, 320 g/ha; type: in vivo; conditions: application rate 320 g/ha, scored visually after about 3 weeks vs untreated controls
From the text: (§3) Seeds of monocotyledonous and dicotyledonous weed plants and crop plants were placed in plastic or organic planting pots and covered with soil. The compounds of the invention, formulated in the form of wettable powders (WP) or as emulsion concentrates (EC), were then applied to the surface of the covering soil as aqueous suspension or emulsion with addition of 0.5% additive at a water application rate equivalent to […]. After the treatment, the pots were placed in a greenhouse and kept under good growth conditions for the test plants. After about 3 weeks, the effect of the preparations is scored visually in comparison with untreated controls as percentages. For example, 100% activity=the plants have died, 0% activity=like control plants. Tables B1 to B14 below show the effects of selected compounds of the general formula (I) according to Tables I.1 to I.150 on various harmful plants and at an application rate corresponding to 320 g/ha, which were obtained by the experimental procedure mentioned above.

Amaranthus retroflexus [8] = experiment: as above; type: in vivo; conditions: application rate 320 g/ha, scored visually after about 3 weeks vs untreated controls
From the text: as §3

Pharbitis purpurea [9] = experiment: as above; type: in vivo; conditions: application rate 320 g/ha, Table B12
From the text: as §3

Stellaria media [10] = experiment: as above; type: in vivo; conditions: application rate 320 g/ha, scored visually after about 3 weeks vs untreated controls
From the text: as §3

Polygonum convolvulus [11] = experiment: as above; type: in vivo; conditions: application rate 320 g/ha, scored visually after about 3 weeks vs untreated controls
From the text: as §3

Alopecurus myosuroides = experiment: as above; type: in vivo; conditions: application rate 320 g/ha, scored visually after about 3 weeks vs untreated controls
From the text: as §3

Veronica persica = experiment: as above; type: in vivo; conditions: application rate 320 g/ha, Table B13
From the text: as §3

Viola tricolor [12] = experiment: as above; type: in vivo; conditions: application rate 320 g/ha, Table B8
From the text: as §3

Digitaria sanguinalis = experiment: as above; type: in vivo; conditions: application rate 320 g/ha, Table B9
From the text: as §3

Amaranthus retroflexus [13] = experiment: Herbicidal post-emergence action (Part 2), 1280 g/ha; type: in vivo; conditions: application rate 1280 g/ha, rated visually after about 3 weeks, Table C5
Description: (§4) Seeds of mono- and dicotyledonous weed plants were placed in plastic pots in sandy loam soil (doubly sown with in each case one species of mono- or dicotyledonous weed plants per pot), covered with soil and cultivated in a greenhouse under controlled growth conditions. 2 to 3 weeks after sowing, the test plants were treated at the one-leaf stage. The compounds of the invention, formulated in the form of wettable powders (WP) or as emulsion concentrates (EC), were applied onto the green parts of the plants as aqueous suspension or emulsion with addition of 0.5% additive at a water application rate of 600 liters per hectare (converted). After the test plants had been kept in the greenhouse under optimum growth conditions for about 3 weeks, the activity of the preparations was rated visually in comparison to untreated controls. For example, 100% activity=the plants have died, 0% activity=like control plants. Tables C1 to C7 below show the effects of selected compounds of the general formula (I) according to Tables 1.1 to 1.150 on various harmful plants and at an application rate corresponding to 1280 g/ha, which were obtained by the experimental procedure mentioned above.

Poa annua [14] = experiment: as above; type: in vivo; conditions: application rate 1280 g/ha, rated visually after about 3 weeks, Table C2
Description: as §4

Matricaria inodora [15] = experiment: Herbicidal pre-emergence action (Part 2), 1280 g/ha; type: in vivo; conditions: application rate 1280 g/ha, scored visually after about 3 weeks, Table D7
From the text: as §2

Abutilon theophrasti [16] = experiment: as above; type: in vivo; conditions: application rate 1280 g/ha, scored visually after about 3 weeks, Table D5
From the text: as §2

Poa annua [17] = experiment: as above; type: in vivo; conditions: application rate 1280 g/ha, scored visually after about 3 weeks, Table D3
From the text: as §2

Pharbitis purpurea [18] = experiment: Post-emergence herbicidal action, greenhouse, 320 g/ha; type: in vivo; conditions: application rate 320 g/ha, rated visually after about 3 weeks vs untreated controls
Description: as §1

Polygonum convolvulus [19] = experiment: as above; type: in vivo; conditions: application rate 320 g/ha, rated visually after about 3 weeks vs untreated controls
Description: as §1

Abutilon theophrasti [20] = experiment: Pre-emergence herbicidal action, greenhouse, 320 g/ha; type: in vivo; conditions: application rate 320 g/ha, scored visually after about 3 weeks vs untreated controls
From the text: as §3

Hordeum murinum = experiment: as above; type: in vivo; conditions: application rate 320 g/ha, Table B14
From the text: as §3

Avena fatua = experiment: as above; type: in vivo; conditions: application rate 320 g/ha, scored visually after about 3 weeks vs untreated controls
From the text: as §3

Setaria viridis [21] = experiment: as above; type: in vivo; conditions: application rate 320 g/ha, Table B11
From the text: as §3

[22] = PS II activity in spinach thylakoid membranes, Table E1

SMILES	Matricaria inodora (efficacy in %) (Matricaria inodora [1])	Abutilon theophrasti (efficacy in %) (Abutilon theophrasti [2])	Amaranthus retroflexus (efficacy in %) (Amaranthus retroflexus [3])	Stellaria media (efficacy in %) (Stellaria media [4])	Setaria viridis (efficacy in %) (Setaria viridis [6])	inhibition at 100 µM (photosystem II (PS II); [22])	Matricaria inodora (efficacy in %) (Matricaria inodora [7])	Amaranthus retroflexus (efficacy in %) (Amaranthus retroflexus [8])	Pharbitis purpurea (efficacy in %) (Pharbitis purpurea [9])	Stellaria media (efficacy in %) (Stellaria media [10])	Polygonum convolvulus (efficacy in %) (Polygonum convolvulus [11])	Alopecurus myosuroides (efficacy in %) (Alopecurus myosuroides)	Viola tricolor (efficacy in %) (Viola tricolor [12])	Digitaria sanguinalis (efficacy in %) (Digitaria sanguinalis)	also measured
CC(=O)OC1CC(C)N(C)C(=O)N1c1cc(C(C)(C)C)on1 (single isomer, unassigned) [I.42-162_a]	100%	100%	100%	100%	80%	–	–	–	–	–	–	–	–	–	Viola tricolor (efficacy in %) (Viola tricolor [5]): 100%
CN1CCC(O)N(c2cc(C(C)(C)C)no2)C1=O (centres unmarked) [I.1-290, 3-(3-tert-Butyl-1,2-oxazol-5-yl)-4-hydroxy-1-methyltetrahydropyrimidin-2(1H)-one]	–	–	–	–	–	> 90%	–	–	–	–	–	–	–	–	Echinochloa crus-galli (Echinochloa crus-galli): 90%
CN1CCC(O)N(c2cc(C(F)(F)F)ccn2)C1=O (centres unmarked) [I.1-449, 4-Hydroxy-1-methyl-3-[4-(trifluoromethyl)pyridin-2-yl]tetrahydropyrimidin-2(1H)-one]	–	–	–	–	–	50 to 70%	80%	100%	100%	100%	100%	100%	100%	100%	Veronica persica (efficacy in %) (Veronica persica): 80%
CN1CC(C)(C)C(O)N(c2cc(C(C)(C)C)on2)C1=O (centres unmarked) [I.61-162, 1-(5-tert-Butyl-1,2-oxazol-3-yl)-6-hydroxy-3,5,5-trimethyltetrahydropyrimidin-2(1H)-one]	–	–	–	–	–	70 to 90%	–	–	–	–	–	–	–	–	Amaranthus retroflexus (Amaranthus retroflexus [13]): 100%; Poa Annua (Poa annua [14]): 90%; Matricaria inodora (Matricaria inodora [15]): 90%; Abutilon theophrasti (Abutilon theophrasti [16]): 100%; Poa Annua (Poa annua [17]): 100%
CC(=O)OC1CC2CCCN2C(=O)N1c1cc(C(C)(C)C)on1 (centres unmarked) [I.122-162]	90%	100%	90%	80%	80%	–	100%	90%	100%	100%	100%	90%	100%	100%	Pharbitis purpurea (efficacy in %) (Pharbitis purpurea [18]): 80%; Polygonum convolvulus (efficacy in %) (Polygonum convolvulus [19]): 90%; Abutilon theophrasti (efficacy in %) (Abutilon theophrasti [20]): 100%; Hordeum murinum (efficacy in %) (Hordeum murinum): 100%; Avena fatua (efficacy in %) (Avena fatua): 80%; Setaria viridis (efficacy in %) (Setaria viridis [21]): 100%
CSc1nnc(C(C)(C)C)c(=O)n1N [Metribuzin, metribuzin, reference compound]	–	–	–	–	–	–	–	–	–	–	–	–	–	–	inhibition at 100 µM (photosystem II (PS II)): > 90%
